The values below come from US9469611B2, “Use of dihydroimidazolones for the treatment of dogs” (BOEHRINGER INGELHEIM VETMEDICA GMBH, priority 2002, dated 2016).

Where “and” joins values, the source holds several entries; their conditions need not be identical. Equal entries are not always repeated. Marks after values point to notes of the source that are not given here.

For series [1] the following is noted: cited from earlier work.
The subject of series [2] is dogs with newly diagnosed idiopathic epilepsy. The experiment in a line: monotherapy in dogs with newly diagnosed idiopathic epilepsy (AWD 131-138 pilot study; retrospective phenobarbital, primidone). As to conditions: for duration of the ictus before treatment, median / duration of the ictus before treatment, time range / duration of the ictus during treatment, median / duration of the ictus during treatment, time range: grand mal seizures; for duration of the ictus before treatment, median / duration of the ictus before treatment, time range / Seizure frequency before treatment, all dogs / Seizure frequency before treatment, without nonresponders: baseline before monotherapy; for % reduction of seizures in responders: mean ± SEM; for Seizure frequency before treatment, all dogs / Seizure frequency before treatment, without nonresponders / Seizure frequency during treatment, all dogs / Seizure frequency during treatment, without nonresponders: median group value; for Seizure frequency during treatment, all dogs / Seizure frequency during treatment, without nonresponders: asterisk = P<0.05 vs before; for shortening of the postictal phase, mean: in the dogs with shortening; for dogs with unchanged or increased seizure severity: owners record.

Series [3] in a line: serum concentrations of phenobarbital and bromide.
Series [4] concerns dogs with chronic idiopathic epilepsy. The experiment in a line: add-on therapy in dogs with chronic idiopathic epilepsy not responding to phenobarbital or primidone. Type of series: in vivo, dog.
Where [5] appears, read: 44 newly diagnosed dogs, phenobarbital 4 to 13 mg/kg p.o. daily.
The mark [6] stands for this setting: eight chronic epilepsy dogs (potassium bromide add-on group), phenobarbital 6 to 17 mg/kg p.o. daily.
[7] abbreviates: eleven chronic epilepsy dogs (later AWD add-on), phenobarbital 6 to 23 mg/kg p.o. daily.
The mark [8] stands for this setting: potassium bromide 40-60 mg/kg p.o. daily, add-on.
Setting [9] is: add-on to phenobarbital or primidone.
[10] abbreviates: grand mal seizures, add-on to phenobarbital or primidone.
Setting [11] is: grand mal seizures, on phenobarbital or primidone before add-on.
The mark [12] stands for this setting: median, on phenobarbital/primidone before add-on.

Regarding `CCC1(c2ccccc2)C(=O)NC(=O)NC1=O` [Phenobarbital, phenobarbital], the “phenobarbital serum concentration, reference values” in series [1] (established by FARNBACH 1984) is 45 µg/mL. Also, in series [2], the “duration of the ictus before treatment, median” value was 4.0 min; the “duration of the ictus before treatment, time range” value is 0.5 to 10 min; the “Seizure frequency before treatment, all dogs” value amounted to 1.6 seizures/month; the “Seizure frequency before treatment, without nonresponders” value is listed as 1.68 seizures/month. Further, in series [2] (monotherapy), the “duration of the ictus during treatment, median” value was determined as 5.0 min; the “duration of the ictus during treatment, time range” value was in the range of 0.5 to 10 min; the “% reduction of seizures in responders” value is 72.4 ± 4.6%; the “Seizure frequency during treatment, all dogs” value was 0.59* seizures/month. For the same compound, in series [2] (monotherapy), the “Seizure frequency during treatment, without nonresponders” value is on record as 0.42* seizures/month; the “dogs that died or were euthanized in status epilepticus” value (from here on “dogs that died or were euthanized”) is recorded as 10; the “dogs with focal seizures instead of grand mal seizures during treatment” value is on record as 6; the “number of dogs with decreased duration of the ictus” value turned out to be 4. Besides, in series [2] (monotherapy), the “number of dogs with shortened postictal phase” value turned out to be 8; the “owners reporting subjectively a decrease of seizure severity” value is 24; the “postictal phase during treatment, mean” value was 3 h; the “shortening of the postictal phase, mean” value was found to be 43%. Also, the “dogs with unchanged or increased seizure severity” value in series [2] (monotherapy) came out at 11. For the same compound, in series [3] (setting [5]), the “serum concentration of phenobarbital, mean” value was determined as 18400 ng/mL and the “serum concentration of phenobarbital, median” value was 17200 ng/mL. Moreover, in series [3] (setting [6]), the “serum concentration, mean” value stood at 27200 ng/mL and the “serum concentration, median” value was found to be 24600 ng/mL. Further, in series [3] (setting [7]), the “serum concentration of phenobarbital, mean” value is 32000 ng/mL and the “serum concentration of phenobarbital, median” value worked out at 26500 ng/mL.

`[Br-].[K+]` [Potassium bromide, potassium bromide, reference compound]: in series [1] (established by PODELL and FENNER 1993), the “bromide concentration, therapeutic range” value was 1.0 to 2.0 mg/mL. In series [3] (setting [8]), the “Bromide concentration, mean” value is 1.0 mg/mL and the “Bromide concentration, median” value stood at 0.9 mg/mL. Further, the “comparison of antiepileptic efficacy between the two add on treatment schedules” value in series [4] (Fisher's exact test) is “did not indicate any significant difference”. Besides, in series [4] (add-on), the “dogs in which clusters did not occur anymore” value was determined as 6, the “dogs with worsening of seizure severity reported by owner” value is on record as “one”, the “number of dogs with decreased duration of the ictus” value was determined as 3 and the “number of dogs with shortened postictal phase” value is “two”. The “postictal phase during treatment, mean” value in series [4] (add-on) turned out to be 5.5 h. In series [4] (setting [9]), the “dogs in which a seizure reduction was observed” value is given as 7 of 12 and the “dogs that died or were euthanized” value turned out to be 6. In series [4] (add-on to phenobarbital/primidone), the “Number of seizure-free dogs” value was 0/12. Besides, in series [4] (add-on, in the dogs with shortening), the “shortening of the postictal phase” value is 50% and 75%. Moreover, in series [4] (setting [10]), the “duration of the ictus during treatment, median” value stood at 2.0 min and the “duration of the ictus during treatment, time range” value lay within 1 to 10 min. In series [4] (setting [11]), the “duration of the ictus before treatment, median” value came to 3.0 min and the “duration of the ictus before treatment, time range” value is 1 to 13 min. Further, in series [4] (mean ± SEM, add-on to phenobarbital/primidone), the “% reduction of seizures in responders” value was determined as 59.7 ± 5.9%. Moreover, the “Seizure frequency during treatment, all dogs” value in series [4] (median, add-on to phenobarbital/primidone) stood at 1.9 seizures/month. Besides, in series [4] (median, add-on to phenobarbital/primidone, asterisk = P<0.05), the “Seizure frequency during treatment, without nonresponders” value is 0.8* seizures/month. In series [4] (setting [12]), the “Seizure frequency before treatment, all dogs” value is reported as 3.0 seizures/month and the “Seizure frequency before treatment, without nonresponders” value came out at 3.0 seizures/month.

Turning to `CCC1(c2ccccc2)C(=O)NCNC1=O` [Primidone, primidone], in series [2] (ANOVA), the “comparison of antiepileptic efficacy between monotherapy treatment groups” value is “did not indicate any significant differences”. For the same compound, in series [2], the “duration of the ictus before treatment, median” value was determined as 1.5 min; the “duration of the ictus before treatment, time range” value fell in the range of 0.5 to 10 min; the “Seizure frequency before treatment, all dogs” value stood at 1.75 seizures/month; the “Seizure frequency before treatment, without nonresponders” value is 2.0 seizures/month. Moreover, in series [2] (monotherapy), the “duration of the ictus during treatment, median” value was 1.0 min; the “duration of the ictus during treatment, time range” value lay in the range of 0.5 to 10 min; the “% reduction of seizures in responders” value is given as 75.1 ± 5.1%; the “Seizure frequency during treatment, all dogs” value came out at 0.39 seizures/month. Moreover, in series [2] (monotherapy), the “Seizure frequency during treatment, without nonresponders” value is on record as 0.29* seizures/month; the “dogs in which a seizure reduction was observed” value is recorded as 19 of 26; the “dogs that died or were euthanized” value is 10; the “dogs with focal seizures instead of grand mal seizures during treatment” value was found to be 2. For the same compound, in series [2] (monotherapy), the “dogs with reduced seizure number per cluster” value is reported as 5 out of ten, the “number of dogs with decreased duration of the ictus” value is 2, the “number of dogs with shortened postictal phase” value is 5 and the “owners reporting subjectively a decrease of seizure severity” value was “ten of 22”. Moreover, in series [2] (monotherapy), the “postictal phase during treatment, mean” value was found to be 4.5 h; the “reduction of seizure number per cluster, mean” value was found to be 37.5%; the “shortening of the postictal phase, mean” value came out at 40%; the “dogs with unchanged or increased seizure severity” value is reported as 2. Moreover, the “decrease of the duration of the ictus” value in series [2] (monotherapy, in the dogs with a decrease) was 30%.
